Experimental data taken from patent publication US4612366A, “Cyclic hexapeptide somatostatin analogs” (Merck & Co., Inc., priority 1985, dated 1986).

Tests used:
portal vein insulin = assay: Decrease of portal vein insulin levels in anesthetized rats, compared to somatostatin; assay type: in vivo, rat; details: multiples or fractions of the effect of somatostatin (= 1); urethane-anesthetized male Sprague-Dawley rats, external jugular vein, portal vein blood after 5 minutes
Experimental: (§1) Analogs of somatostatin were compared to somatostatin in their ability to decrease the levels of portal vein glucagon and insulin in anesthetized rats. Male Sprague-Dawley rats (Charles River CD) weighing 160-200 g were anestetized with urethane (150 mg/100 g of body weight; Aldrich). Saline or peptides were administered via the external jugular vein. After 5 minutes, the portal vein was exposed, and blood was collected via syringe containing 3 mg of EDTA and placed in chilled tubes containing 100 μl of Trasylol (FBA Pharmaceuticals) for subsequent hormone analysis. Plasma levels of glucagon were determined by the method of Faloona and Unger, Methods of Hormone Radioimmunossay, Jaffe and Behrman (Eds), Academic Press, New York, Vol. II, pp. 257-527 (1976), utilizing glucagon antisera 30K obtained from R. Unger (Dallas, TX). Plasma levels of insulin were determined by a modification of the procedure of Herbert et al., J. Clin. Endocrinol. Metab., 25, 1375-1384 (1965).
(§2) The test results for some of the compounds of this invention are recorded below with the results for somatostatin listed first and given the arbitrary value of 1. The results for the instant compounds are given as multiples or fractions of the effect of somatostatin. The first of the instant compounds listed is the compound prepared in Example 1-5. […]

portal vein glucagon = assay: Decrease of portal vein glucagon levels in anesthetized rats, compared to somatostatin; assay type: in vivo, rat; details: multiples or fractions of the effect of somatostatin (= 1); urethane-anesthetized male Sprague-Dawley rats, external jugular vein, portal vein blood after 5 minutes
Experimental: as §1, §2

C[C@H](N)C(=O)NCC(=O)N[C@H]1CSSC[C@@H](C(=O)O)NC(=O)[C@H](CO)NC(=O)[C@H]([C@@H](C)O)NC(=O)[C@H](Cc2ccccc2)NC(=O)[C@H]([C@@H](C)O)NC(=O)[C@H](CCCCN)NC(=O)[C@H](Cc2c[nH]c3ccccc23)NC(=O)[C@H](Cc2ccccc2)NC(=O)[C@H](Cc2ccccc2)NC(=O)[C@H](CC(N)=O)NC(=O)[C@H](CCCCN)NC1=O [Somatostatin]
Insulin Release Inhibition (portal vein insulin): 1
Glucagon Inhibition (portal vein glucagon): 1
